Measurements as given in paper PMC11596972, “Synthesis and Antimicrobial Activity of 3-Alkylidene-2-Indolone Derivatives” (Molecules, 2024).
Converted amounts (≈) assume the structure as drawn. Where two headings read alike, the source gives them in different places.

Tests used:
S. aureus 4220 = assay: MIC, double dilution method, S. aureus 4220; format: cell-based; conditions: Staphylococcus aureus, 4220, 24 h
S. aureus ATCC 6538 = assay: MIC, double dilution method, S. aureus ATCC 6538; format: cell-based; conditions: Staphylococcus aureus, ATCC6538, 24 h
MRSA ATCC 43300 = assay: MIC, double dilution method, MRSA ATCC 43300; format: cell-based, Methicillin-resistant Staphylococcus aureus; conditions: MRSA ATCC 43300, Gram-positive, 24 h culture
P. aeruginosa CMCC 10211 = assay: MIC, double dilution method, P. aeruginosa CMCC 10211; format: cell-based; conditions: Pseudomonas aeruginosa
E. coli ATCC 25922 = assay: MIC, double dilution method, E. coli ATCC 25922; format: cell-based; conditions: Escherichia coli
E. coli 1924 = assay: MIC, double dilution method, E. coli 1924; format: cell-based, Escherichia coli
C. albicans CMCC 98001 = assay: MIC, double dilution method, C. albicans CMCC 98001; format: cell-based, Candida albicans; conditions: for MIC: C. albicans CMCC 98001, fungus, 24 h culture; for antifungal activity (class in words): C. albicans CMCC 98001
[1] = S. aureus 4220, Gram-positive, 24 h culture, read-out: MIC
[2] = S. aureus ATCC 6538, Gram-positive, 24 h culture, read-out: MIC
[3] = Staphylococcus aureus, 24 h, read-out: MIC
[4] = CMCC10211, P. aeruginosa CMCC 10211, Gram-negative, 24 h culture, read-out: MIC
[5] = ATCC25922, E. coli ATCC 25922, Gram-negative, 24 h culture, read-out: MIC
[6] = Escherichia coli, E. coli 1924, Gram-negative, 24 h culture, read-out: MIC
[7] = Candida albicans, CMCC98001, 24 h, read-out: MIC
[8] = Candida albicans, CMCC98001, 24 h

Compound | MIC (S. aureus 4220; [1]) [µg/mL] | MIC (S. aureus ATCC 6538; [2]) [µg/mL] | MIC (MRSA ATCC 43300; [3]) [µg/mL] | MIC (P. aeruginosa CMCC 10211; [4]) [µg/mL] | MIC (E. coli ATCC 25922; [5]) [µg/mL] | MIC (E. coli 1924; [6]) [µg/mL] | MIC (C. albicans CMCC 98001; [7]) [µg/mL] | antifungal activity (class in words) (C. albicans CMCC 98001) | MIC (C. albicans CMCC 98001) [µg/mL] | MIC (S. aureus 4220) [µg/mL] | MIC (S. aureus ATCC 6538) [µg/mL] | MIC (MRSA ATCC 43300; Staphylococcus aureus, 24 h) [µg/mL] | MIC (P. aeruginosa CMCC 10211; CMCC10211, 24 h) [µg/mL] | MIC (E. coli ATCC 25922; ATCC25922, 24 h) [µg/mL] | MIC (E. coli 1924; Escherichia coli, 1924, 24 h) [µg/mL] | MIC (C. albicans CMCC 98001; [8]) [µg/mL] | MIC (MRSA ATCC 43300) [µg/mL] | MIC (MRSA ATCC 43300; listed as 10v) [µg/mL]
C/C(O)=C1/C(=O)N(C)c2c(C)cccc21 [Compound 5b, (Z)-3-(1-hydroxyethylidene)-1,7-dimethylindolin-2-one] | > 64 | 64 (≈ 315 µM) | > 64 | 64 (≈ 315 µM) | 64 (≈ 315 µM) | 32 (≈ 157 µM) | 32 (≈ 157 µM) | – | – | – | – | – | – | – | – | – | – | –
C/C(O)=C1/C(=O)N(C)c2cc(C)ccc21 [Compound 5c, (Z)-3-(1-hydroxyethylidene)-1,6-dimethylindolin-2-one] | > 64 | 64 (≈ 315 µM) | > 64 | 64 (≈ 315 µM) | 64 (≈ 315 µM) | 16 (≈ 78.7 µM) | 16 (≈ 78.7 µM) | – | – | – | – | – | – | – | – | – | – | –
C/C(O)=C1/C(=O)N(C)c2ccc(C)cc21 [Compound 5d, (Z)-3-(1-hydroxyethylidene)-1,5-dimethylindolin-2-one] | – | 64 (≈ 315 µM) | > 64 | 64 (≈ 315 µM) | > 64 | 2 (≈ 9.84 µM) | – | moderate antifungal activity | – | – | – | – | – | – | – | – | – | –
C/C(O)=C1/C(=O)N(C)c2c(F)cccc21 [Compound 5e, (Z)-7-fluoro-3-(1-hydroxyethylidene)-1-methylindolin-2-one] | – | 64 (≈ 309 µM) | 64 (≈ 309 µM) | > 64 | > 64 | 16 (≈ 77.2 µM) | 32 (≈ 154 µM) | – | – | – | – | – | – | – | – | – | – | –
C/C(O)=C1/C(=O)N(C)c2cc(F)ccc21 [Compound 5f, (Z)-6-fluoro-3-(1-hydroxyethylidene)-1-methylindolin-2-one] | > 64 | > 64 | > 64 | > 64 | > 64 | 32 (≈ 154 µM) | 64 (≈ 309 µM) | – | – | – | – | – | – | – | – | – | – | –
C/C(O)=C1/C(=O)N(C)c2ccc(F)cc21 [Compound 5g, (Z)-5-fluoro-3-(1-hydroxyethylidene)-1-methylindolin-2-one] | > 64 | 64 (≈ 309 µM) | > 64 | > 64 | > 64 | 64 (≈ 309 µM) | 32 (≈ 154 µM) | – | – | – | – | – | – | – | – | – | – | –
C/C(O)=C1/C(=O)N(C)c2cccc(F)c21 [Compound 5h, (Z)-4-fluoro-3-(1-hydroxyethylidene)-1-methylindolin-2-one] | 64 (≈ 309 µM) | > 64 | > 64 | > 64 | > 64 | 32 (≈ 154 µM) | 8 to 16 (≈ 38.6 to 77.2 µM) | moderate antifungal activity | 16 (≈ 77.2 µM) | – | – | – | – | – | – | – | – | –
C/C(O)=C1/C(=O)N(C)c2c(Cl)cccc21 [Compound 5i, (Z)-7-chloro-3-(1-hydroxyethylidene)-1-methylindolin-2-one] | 32 (≈ 143 µM) | 32 (≈ 143 µM) | 64 (≈ 286 µM) | 64 (≈ 286 µM) | > 64 | 8 (≈ 35.8 µM) | 64 (≈ 286 µM) | – | – | – | – | – | – | – | – | – | – | –
C/C(O)=C1/C(=O)N(C)c2cc(Cl)ccc21 [Compound 5j, (Z)-6-chloro-3-(1-hydroxyethylidene)-1-methylindolin-2-one] | 32 (≈ 143 µM) | – | > 64 | > 64 | > 64 | 8 (≈ 35.8 µM) | 64 (≈ 286 µM) | – | – | – | – | – | – | – | – | – | – | –
C/C(O)=C1/C(=O)N(C)c2ccc(Cl)cc21 [Compound 5k, (Z)-5-chloro-3-(1-hydroxyethylidene)-1-methylindolin-2-one] | – | 16 (≈ 71.5 µM) | > 64 | > 64 | > 64 | 1 (≈ 4.47 µM) | 32 (≈ 143 µM) | – | – | – | – | – | – | – | – | – | – | –
C/C(O)=C1/C(=O)N(C)c2c(Br)cccc21 [Compound 5l, (Z)-7-bromo-3-(1-hydroxyethylidene)-1-methylindolin-2-one] | 32 (≈ 119 µM) | 64 (≈ 239 µM) | 64 (≈ 239 µM) | > 64 | > 64 | 8 (≈ 29.8 µM) | 64 (≈ 239 µM) | – | – | – | – | – | – | – | – | – | – | –
C/C(O)=C1/C(=O)N(C)c2cc(Br)ccc21 [Compound 5m, (Z)-6-bromo-3-(1-hydroxyethylidene)-1-methylindolin-2-one] | > 64 | 32 (≈ 119 µM) | 64 (≈ 239 µM) | > 64 | > 64 | 16 (≈ 59.7 µM) | 64 (≈ 239 µM) | – | – | – | – | – | – | – | – | – | – | –
C/C(O)=C1/C(=O)N(C)c2ccc(Br)cc21 [Compound 5n, (Z)-5-bromo-3-(1-hydroxyethylidene)-1-methylindolin-2-one] | 32 (≈ 119 µM) | 32 (≈ 119 µM) | > 64 | > 64 | > 64 | 8 (≈ 29.8 µM) | 64 (≈ 239 µM) | – | – | – | – | – | – | – | – | – | – | –
COc1cccc2c1N(C)C(=O)/C2=C(/C)O [Compound 5o, (Z)-3-(1-hydroxyethylidene)-7-methoxy-1-methylindolin-2-one] | > 64 | > 64 | 64 (≈ 292 µM) | 64 (≈ 292 µM) | > 64 | 16 (≈ 73 µM) | 32 (≈ 146 µM) | – | – | – | – | – | – | – | – | – | – | –
C/C(O)=C1/C(=O)N(C)c2ccc(C#N)cc21 [Compound 5p, (Z)-3-(1-hydroxyethylidene)-1-methyl-2-oxoindoline-5-carbonitrile] | 64 (≈ 299 µM) | 64 (≈ 299 µM) | > 64 | > 64 | > 64 | > 64 | > 64 | – | – | – | – | – | – | – | – | – | – | –
C/C(O)=C1/C(=O)N(C)c2ccc(C(F)(F)F)cc21 [Compound 5q, (Z)-3-(1-hydroxyethylidene)-1-methyl-5-(trifluoromethyl)indolin-2-one] | 64 (≈ 249 µM) | – | > 64 | > 64 | > 64 | 16 (≈ 62.2 µM) | > 64 | – | – | – | – | – | – | – | – | – | – | –
C/C(O)=C1/C(=O)N(C)c2cc(C(F)(F)F)ccc21 [Compound 5r, (Z)-3-(1-hydroxyethylidene)-1-methyl-6-(trifluoromethyl)indolin-2-one] | 64 (≈ 249 µM) | – | – | > 64 | > 64 | > 64 | 8 to 16 (≈ 31.1 to 62.2 µM) | moderate antifungal activity | 16 (≈ 62.2 µM) | – | – | – | – | – | – | – | – | –
COc1ccc2c(c1)/C(=C(\C)O)C(=O)N2Cc1ccccc1 [Compound 5s, (Z)-1-benzyl-3-(1-hydroxyethylidene)-5-methoxyindolin-2-one] | 32 (≈ 108 µM) | 64 (≈ 217 µM) | 64 (≈ 217 µM) | > 64 | > 64 | 16 (≈ 54.2 µM) | > 64 | – | – | – | – | – | – | – | – | – | – | –
CCN1C(=O)/C(=C(/C)O)c2ccccc21 [Compound 5t, (Z)-1-ethyl-3-(1-hydroxyethylidene) indolin-2-one] | > 64 | 64 (≈ 315 µM) | > 64 | > 64 | > 64 | 32 (≈ 157 µM) | 32 (≈ 157 µM) | – | – | – | – | – | – | – | – | – | – | –
C/C(O)=C1/C(=O)N(Cc2ccccc2)c2ccccc21 [Compound 5u, (Z)-1-benzyl-3-(1-hydroxyethylidene)indolin-2-one] | – | – | 64 (≈ 241 µM) | > 64 | 64 (≈ 241 µM) | 2 (≈ 7.54 µM) | 32 (≈ 121 µM) | – | – | – | – | – | – | – | – | – | – | –
CCCN1C(=O)/C(=C(/C)O)c2ccccc21 [Compound 5v, (Z)-3-(1-hydroxyethylidene)-1-propylindolin-2-one] | 64 (≈ 295 µM) | 64 (≈ 295 µM) | – | > 64 | > 64 | 16 (≈ 73.6 µM) | 32 (≈ 147 µM) | – | – | – | – | – | – | – | – | – | – | –
COc1ccc(CN2C(=O)/C(=C(/C)O)c3ccccc32)cc1 [Compound 5w, (Z)-3-(1-hydroxyethylidene)-1-(4-methoxybenzyl)indolin-2-one] | > 64 | 64 (≈ 217 µM) | 64 (≈ 217 µM) | > 64 | > 64 | 8 (≈ 27.1 µM) | 32 (≈ 108 µM) | – | – | – | – | – | – | – | – | – | – | –
CN1C(=O)/C(=C(\O)c2ccccc2)c2ccccc21 [Compound 10b, (Z)-3-(hydroxy(phenyl)methylene)-1-methylindolin-2-one] | – | – | – | – | – | – | – | – | – | 32 (≈ 127 µM) | 8 (≈ 31.8 µM) | 32 (≈ 127 µM) | > 64 | 64 (≈ 255 µM) | 8 (≈ 31.8 µM) | > 64 | – | –
Cc1ccc(/C(O)=C2/C(=O)N(C)c3ccccc32)cc1 [Compound 10c, (Z)-3-(hydroxy(p-tolyl)methylene)-1-methylindolin-2-one] | – | – | – | – | – | – | – | – | – | 8 (≈ 30.2 µM) | 2 (≈ 7.54 µM) | – | > 64 | 64 (≈ 241 µM) | 8 (≈ 30.2 µM) | 64 (≈ 241 µM) | 16 (≈ 60.3 µM) | 0.5 to 16
CN1C(=O)/C(=C(\O)c2ccc(Cl)cc2)c2ccccc21 [Compound 10e, (Z)-3-((4-chlorophenyl)(hydroxy)methylene)-1-methylindolin-2-one] | – | – | – | – | – | – | – | – | – | 8 (≈ 28 µM) | 2 (≈ 7 µM) | 16 (≈ 56 µM) | > 64 | 64 (≈ 224 µM) | 8 (≈ 28 µM) | 64 (≈ 224 µM) | – | –
CN1C(=O)/C(=C(\O)c2ccc(Br)cc2)c2ccccc21 [Compound 10i, (Z)-3-((4-bromophenyl)(hydroxy)methylene)-1-methylindolin-2-one] | – | – | – | – | – | – | – | – | – | 16 (≈ 48.5 µM) | 2 (≈ 6.06 µM) | 16 (≈ 48.5 µM) | > 64 | > 64 | 8 (≈ 24.2 µM) | > 64 | – | –
